From patent publication US8748614B2, “Substituted isoquinoline and isoquinolinone derivatives” (Sanofi, priority 2006, dated 2014)
Structures can show the parent of a compound that is named as a salt.

The molecules below were run against T1, human recombinant ROCK II (Homo sapiens, UniProt O75116) (assay: Determination of Rho Kinase Inhibition (ROCK II, Caliper peptide phosphorylation assay)). Conditions: 60 min incubation at 32° C., respective form (salt or free base) as obtained in the examples.
T1 construct: recombinant human ROCK-II residues 11-552; His6 (N); purchased Upstate Ltd., Dundee, UK
Format: biochemical
Method: Determination of Rho Kinase Inhibition
To measure Rho-kinase inhibition, IC50 values were determined according to the following protocol:
Active human recombinant ROCK II (N-terminal His6-tagged recombinant human ROCK-II residues 11-552) was purchased from Upstate Ltd., Dundee, UK. The peptide substrate, Fluorescein-AKRRRLSSLRA-COOH, was obtained from JPT Peptide Technologies, Berlin, Germany. Adenosine-5′-triphosphate (ATP), bovine serum albumine (BSA), dimethylsulphoxide (DMSO), 4-(2-Hydroxyethyl)piperazine-1-ethanesulfonic acid (Hepes), Brij-35 and dithiothreitol (DTT) were purchased from Sigma-Aldrich, Munich, Germany. Tris(hydroxymethyl)-aminomethane (Tris), magnesium chloride, NaOH, 1M HCl and EDTA were obtained from Merck Biosciences, Darmstadt, Germany. “Complete” protease inhibitor was from Roche Diagnostics, Mannheim, Germany.
Test compounds were diluted to the appropriate concentrations in buffer 1 (25 mM Tris-HCl, pH 7.4, 5 mM MgCl2, 2 mM DTT, 0.02% (w/v) BSA and 3% DMSO). The ROCK II enzyme was diluted to a concentration of 100 ng/ml in buffer 2 (25 mM Tris-HCl, pH 7.4, 5 mM MgCl2, 2 mM DTT and 0.02% (w/v) BSA). The peptide substrate and ATP were diluted to concentrations of 3 μM and 120 μM, respectively, in the buffer 2. Two μl of the compound solution were mixed with 2 μl of the diluted enzyme in a 384-well small volume microtiter plate (Greiner, Bio-One, Frickenhausen, Germany), and the kinase reaction was initiated by addition of 2 μl of the solution containing peptide substrate and ATP. After 60 min incubation at 32° C., the reaction was stopped by addition of 20 μl of a solution containing 100 mM Hepes-NaOH, pH 7.4, 0.015% (v/v) Brij-35, 45 mM EDTA and 0.227% chip coating reagent 1 (Caliper Lifescience Inc, Hopkinton, Mass.). Phosphorylation of the substrate peptide was then detected on a Caliper 3000 instrument essentially as described by Pommereau et al (J. Biomol. Screening 9(5), 409-416, 2004). Separation conditions were as follows: Pressure −1.3 psi, upstream voltage −1562 V, downstream voltage −500 V, sample sip time 200 ms. Positive controls (buffer 1 instead of compound) and negative controls (buffer 1 instead of compound and buffer 2 instead of ROCK II) were run in parallel on each plate. The following products/compounds were tested in said assay by using the respective form (salt or free base) obtained as in the examples described above and the following activities were measured.

T1 sequence (O75116 11-552): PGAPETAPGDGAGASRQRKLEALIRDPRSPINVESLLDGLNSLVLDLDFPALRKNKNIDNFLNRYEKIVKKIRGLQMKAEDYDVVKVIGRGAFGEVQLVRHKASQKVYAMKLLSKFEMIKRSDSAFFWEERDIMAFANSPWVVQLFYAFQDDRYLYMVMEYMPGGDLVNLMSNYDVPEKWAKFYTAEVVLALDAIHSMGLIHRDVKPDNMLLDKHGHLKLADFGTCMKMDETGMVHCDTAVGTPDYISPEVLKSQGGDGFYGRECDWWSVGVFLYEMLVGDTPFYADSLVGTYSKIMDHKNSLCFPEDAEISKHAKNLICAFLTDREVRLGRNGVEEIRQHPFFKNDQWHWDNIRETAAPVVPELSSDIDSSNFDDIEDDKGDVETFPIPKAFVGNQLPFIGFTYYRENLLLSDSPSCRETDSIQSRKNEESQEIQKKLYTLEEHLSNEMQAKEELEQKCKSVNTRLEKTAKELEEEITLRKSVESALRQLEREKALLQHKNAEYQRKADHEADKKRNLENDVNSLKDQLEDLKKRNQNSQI

SMILES | IC50
O=c1[nH]ccc2cc(N[C@@H]3CCCN(Cc4ccccn4)C3)ccc12 [Example 215, 6-((R)-1-Pyridin-2-ylmethyl-piperidin-3-ylamino)-2H-isoquinolin-1-one] | 1 to 10 µM
O=c1[nH]ccc2cc(N[C@@H]3CCCN(Cc4ccccc4)C3)ccc12 [Example 207, 6-((R)-1-Benzyl-piperidin-3-ylamino)-2H-isoquinolin-1-one] | ≤ 1 µM
O=c1[nH]ccc2cc(NC3CN(Cc4cccc(Cl)c4F)C3)ccc12 [Example 249, 6-[1-(3-Chloro-2-fluoro-benzyl)-azetidin-3-ylamino]-2H-isoquinolin-1-one] | ≤ 1 µM
O=c1[nH]ccc2cc(N[C@H]3CCN(Cc4ccc5ccccc5c4)C3)ccc12 [Example 243, 6-((S)-1-Naphthalen-2-ylmethyl-pyrrolidin-3-ylamino)-2H-isoquinolin-1-one] | ≤ 1 µM
O=c1[nH]ccc2cc([S+]([O-])C3CCNCC3)c(Cl)cc12 (stereo not shown) [Example 290, 7-Chloro-6-(piperidine-4-sulfinyl)-2H-isoquinolin-1-one hydrochloride] | 1 to 10 µM
O=c1[nH]ccc2cc(S(=O)(=O)C3CCNCC3)c(Cl)cc12 [Example 288, 7-Chloro-6-(piperidine-4-sulfonyl)-2H-isoquinolin-1-one hydrochloride] | ≤ 1 µM
Brc1cc2cnccc2cc1SC1CCCNCC1 (racemic) [Example 271, (Rac)-6-(Azepan-4-ylsulfanyl)-7-bromo-isoquinoline hydrochloride] | ≤ 1 µM
O=c1[nH]ccc2cc(N[C@H]3CCN(CC4CCCNC4)C3)ccc12 (stereo partly drawn) [Example 248, 6-((S)-1-Piperidin-3-ylmethyl-pyrrolidin-3-ylamino)-2H-isoquinolin-1-one] | 1 to 10 µM
Clc1cc2cnccc2cc1SCC1CCNCC1 [Example 279, 7-Chloro-6-(piperidin-4-ylmethylsulfanyl)-isoquinoline hydrochloride] | 1 to 10 µM
O=c1[nH]ccc2cc(N[C@@H]3CCCN(Cc4ccncc4)C3)ccc12 [Example 213, 6-((R)-1-Pyridin-4-ylmethyl-piperidin-3-ylamino)-2H-isoquinolin-1-one] | 1 to 10 µM
Cn1cc(CN2CC[C@H](Nc3ccc4c(=O)[nH]ccc4c3)C2)cn1 [Example 246, 6-[(S)-1-(1-Methyl-1H-pyrazol-4-ylmethyl)-pyrrolidin-3-ylamino]-2H-isoquinolin-1-one] | 1 to 10 µM
c1cc2cc(N[C@@H]3CCCN(CC4CCCCC4)C3)ccc2cn1 [Example 169, ((R)-1-Cyclohexylmethyl-piperidin-3-yl)-isoquinolin-6-yl-amine] | 1 to 10 µM
CC(C)CCN1CCC[C@@H](Nc2ccc3c(=O)[nH]ccc3c2)C1 [Example 199, 6-[(R)-1-(3-Methyl-butyl)-piperidin-3-ylamino]-2H-isoquinolin-1-one] | ≤ 1 µM
O=c1[nH]ccc2cc(N[C@H]3CCN(Cc4cc(Cl)cc(Cl)c4)C3)ccc12 [Example 234, 6-[(S)-1-(3,5-Dichloro-benzyl)-pyrrolidin-3-ylamino]-2H-isoquinolin-1-one] | 1 to 10 µM
CC(C)N1CC(Nc2ccc3c(=O)[nH]ccc3c2)C1 [Example 251, 6-(1-Isopropyl-azetidin-3-ylamino)-2H-isoquinolin-1-one] | 1 to 10 µM
CN(c1ccc2cnccc2c1)C1CCN(CCC(F)(F)F)CC1 [Example 99, Isoquinolin-6-yl-methyl-[1-(3,3,3-trifluoro-propyl)-piperidin-4-yl]-amine] | 1 to 10 µM
Cc1ccc(CN2CC[C@H](Nc3ccc4c(=O)[nH]ccc4c3)C2)cc1 [Example 236, 6-[(S)-1-(4-Methyl-benzyl)-pyrrolidin-3-ylamino]-2H-isoquinolin-1-one] | ≤ 1 µM
Clc1cc2cnccc2cc1SC1CCCNC1 (racemic) [Example 269, (Rac)-7-Chloro-6-(piperidin-3-ylsulfanyl)-isoquinoline hydrochloride] | ≤ 1 µM
c1cc2cc(N[C@@H]3CCCN(CC4CC4)C3)ccc2cn1 [Example 166, ((R)-1-Cyclopropylmethyl-piperidin-3-yl)-isoquinolin-6-yl-amine] | 1 to 10 µM
CCCN1CCC[C@@H](Nc2ccc3c(=O)[nH]ccc3c2)C1 [Example 195, 6-((R)-1-Propyl-piperidin-3-ylamino)-2H-isoquinolin-1-one] | 1 to 10 µM
O=c1[nH]ccc2cc(N[C@@H]3CCCN(Cc4ccc5ccccc5c4)C3)ccc12 [Example 218, 6-((R)-1-Naphthalen-2-ylmethyl-piperidin-3-ylamino)-2H-isoquinolin-1-one] | ≤ 1 µM
O=c1[nH]ccc2cc(SC3CCNCC3)c(Cl)cc12 [Example 286, 7-Chloro-6-(piperidin-4-ylsulfanyl)-2H-isoquinolin-1-one hydrochloride] | ≤ 1 µM
O=c1[nH]ccc2cc(NC3CN(CC4CC4)C3)ccc12 [Example 253, 6-(1-Cyclopropylmethyl-azetidin-3-ylamino)-2H-isoquinolin-1-one] | 1 to 10 µM
CCCc1cc2cnccc2cc1SC1CCNCC1 [Example 277, 6-(Piperidin-4-ylsulfanyl)-7-propyl-isoquinoline hydrochloride] | ≤ 1 µM
CCCCN1CCC[C@@H](Nc2ccc3c(=O)[nH]ccc3c2)C1 [Example 196, 6-((R)-1-Butyl-piperidin-3-ylamino)-2H-isoquinolin-1-one] | ≤ 1 µM
O=c1[nH]ccc2cc(NC3CN(Cc4ccccc4Cl)C3)ccc12 [Example 259, 6-[1-(2-Chloro-benzyl)-azetidin-3-ylamino]-2H-isoquinolin-1-one] | ≤ 1 µM
O=c1[nH]ccc2cc(N[C@H]3CCN(CC4CC4)C3)ccc12 [Example 226, 6-((S)-1-Cyclopropylmethyl-pyrrolidin-3-ylamino)-2H-isoquinolin-1-one] | ≤ 1 µM
O=c1[nH]ccc2cc(N[C@H]3CCN(Cc4cccc(Cl)c4F)C3)ccc12 [Example 220, 6-[(S)-1-(3-Chloro-2-fluoro-benzyl)-pyrrolidin-3-ylamino]-2H-isoquinolin-1-one] | ≤ 1 µM
